The values below come from article PMC13266984 (Journal of medicinal chemistry, 2026).

By AC50 is commonly meant the concentration giving half of the maximal activity seen.

One assay deals with T1, OE19 (3A1) (Homo sapiens, UniProt P30838).
T1 sequence (P30838 1-453): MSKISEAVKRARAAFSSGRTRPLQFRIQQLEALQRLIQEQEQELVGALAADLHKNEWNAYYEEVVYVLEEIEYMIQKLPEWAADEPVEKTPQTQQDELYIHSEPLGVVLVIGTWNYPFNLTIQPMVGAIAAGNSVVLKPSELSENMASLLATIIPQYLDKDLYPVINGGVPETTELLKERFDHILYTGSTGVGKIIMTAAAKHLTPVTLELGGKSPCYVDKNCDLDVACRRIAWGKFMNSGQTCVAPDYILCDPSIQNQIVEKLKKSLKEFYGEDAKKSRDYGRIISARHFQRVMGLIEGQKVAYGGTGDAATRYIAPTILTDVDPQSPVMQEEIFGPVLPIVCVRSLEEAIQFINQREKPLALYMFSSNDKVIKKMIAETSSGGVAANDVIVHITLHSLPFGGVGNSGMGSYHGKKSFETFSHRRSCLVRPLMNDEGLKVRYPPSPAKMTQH
In words: Cellular ALDEFLUOR assay in OE19 cells (preferential ALDH3A1 expression). Particulars: for Cell_Efficacy: Table S5, OE19 cells; for Cell_CC-v2: Table S5, cellular curve class.

The next assay has as its target T2, Human ALDH3A1 (Homo sapiens, UniProt P30838).
T2 sequence (P30838 1-453): T1 sequence (P30838 1-453)
In words: ALDH3A1 biochemical assay (benzaldehyde/NADP+, diaphorase-resazurin readout, 1,536-well). Particulars: for Efficacy: Table S5, biochemical; for CC-v2: Table S5, biochemical curve class. On the technique in general: Resazurin is reduced to fluorescent resorufin, in cell work by metabolically active cells.

`O=C(NCc1cccc(OC(F)(F)F)c1)c1csc(N2CCN(c3cccc(C(F)(F)F)c3)CC2)n1` [NCGC01407819-01]: at OE19 (3A1), half-maximal activity (AC50) was put at 0.316 µM, the Cell_Efficacy is given as -103.28 and the Cell_CC-v2 is -1.1. In addition, at Human ALDH3A1, the AC50 came to 0.501 µM, the Efficacy was -83.40 and the CC-v2 is -1.1.
Take `O=C(NCc1ccc(C(F)(F)F)c(Cl)c1)c1csc(N2CCN(c3cccc(C(F)(F)F)c3)CC2)n1` [NCGC01407914-01]: at OE19 (3A1), the AC50 is 0.609 µM, the Cell_Efficacy is on record as -99.51 and the Cell_CC-v2 is -1.3. Moreover, on Human ALDH3A1, the half-maximal activity concentration (AC50) came out at 0.0282 µM, the Efficacy is recorded as -95.28 and the CC-v2 was -1.1.
`O=C(NCc1ccc(Oc2ccc(F)cc2)cc1)c1csc(N2CCN(c3cccc(C(F)(F)F)c3)CC2)n1` [NCGC01407922-01]: at OE19 (3A1), the AC50 turned out to be 2.24 µM, the Cell_Efficacy is -108.81 and the Cell_CC-v2 is -1.1. At Human ALDH3A1, the AC50 amounted to 0.398 µM, the Efficacy is -26.41 and the CC-v2 is -1.4.
As to `O=C(NCc1cccc(CC(F)(F)F)c1)c1csc(N2CCN(c3cccc(C(F)(F)F)c3)CC2)n1` [NCGC01407930-01], at OE19 (3A1), half-maximal activity (AC50) was put at 0.86 µM, the Cell_Efficacy was -116.21 and the Cell_CC-v2 was -2.1. Moreover, at Human ALDH3A1, half-maximal activity (AC50) was put at 0.0112 µM, the Efficacy was -103.16 and the CC-v2 is recorded as -1.1.
For `O=C(NCc1ccc(S(F)(F)(F)(F)F)cc1)c1csc(N2CCN(c3cccc(C(F)(F)F)c3)CC2)n1` [NCGC01407933-01], on OE19 (3A1), the activity was half-maximal at 2.72 µM (AC50), the Cell_Efficacy is given as -85.12 and the Cell_CC-v2 is given as -1.1. Moreover, on Human ALDH3A1, half-maximal activity (AC50) was put at 0.0282 µM, the Efficacy was -87.34 and the CC-v2 is -1.1.
Turning to `Cc1ccc(CNC(=O)c2csc(N3CCN(c4cccc(C(F)(F)F)c4)CC3)n2)cc1F` [NCGC01407934-01], on OE19 (3A1), the AC50 was 0.342 µM, the Cell_Efficacy was -95.79 and the Cell_CC-v2 is recorded as -1.1. On Human ALDH3A1, the activity was half-maximal at 0.0282 µM (AC50), the Efficacy is -101.06 and the CC-v2 is given as -1.1.
Take `COc1cc(C)cc(CNC(=O)c2csc(N3CCN(c4cccc(C(F)(F)F)c4)CC3)n2)c1` [NCGC01407935-01]: at OE19 (3A1), the AC50 worked out at 1.08 µM, the Cell_Efficacy is recorded as -91.56 and the Cell_CC-v2 is -1.1. Moreover, at Human ALDH3A1, the AC50 was 0.0141 µM, the Efficacy is given as -100.75 and the CC-v2 is on record as -1.1.
In the case of `O=C(NCc1ccc(Cl)c(F)c1)c1csc(N2CCN(c3cccc(C(F)(F)F)c3)CC2)n1` [NCGC01407936-01], at OE19 (3A1), the AC50 was determined as 0.965 µM, the Cell_Efficacy is listed as -88.16 and the Cell_CC-v2 is listed as -1.1. Besides, at Human ALDH3A1, the activity was half-maximal at 0.0126 µM (AC50), the Efficacy is given as -100.15 and the CC-v2 is -1.1.
Turning to `O=C(NCc1cccc(N2CCC[S+]2(=O)[O-])c1)c1csc(N2CCN(c3cccc(C(F)(F)F)c3)CC2)n1` [NCGC01407948-01], on OE19 (3A1), the Cell_Efficacy stood at 0.00 and the Cell_CC-v2 is 5. Further, at Human ALDH3A1, the AC50 stood at 0.631 µM, the Efficacy was -52.77 and the CC-v2 is reported as -1.2.
Turning to `O=C(NCc1ccc(F)c(F)c1)c1csc(N2CCN(c3cccc(C(F)(F)F)c3)CC2)n1` [NCGC01407951-01], on OE19 (3A1), the AC50 came to 4.31 µM, the Cell_Efficacy is given as -93.55 and the Cell_CC-v2 was -1.3. Besides, at Human ALDH3A1, half-maximal activity (AC50) was put at 0.0355 µM, the Efficacy was -100.75 and the CC-v2 is reported as -1.1.
Turning to `NC(=O)c1csc(N2CCN(c3cccc(C(F)(F)F)c3)CC2)n1` [NCGC01407961-01], on OE19 (3A1), the activity was half-maximal at 28.2 µM (AC50), the Cell_Efficacy is reported as -38.73 and the Cell_CC-v2 is -2.3. On Human ALDH3A1, the Efficacy is listed as -23.04 and the CC-v2 was 4.
For `C[S+](=O)([O-])c1cccc(CNC(=O)c2csc(N3CCN(c4cccc(C(F)(F)F)c4)CC3)n2)c1` [NCGC01407971-01], on OE19 (3A1), the AC50 amounted to 0.251 µM, the Cell_Efficacy is listed as -83.43 and the Cell_CC-v2 is -1.1. Also, on Human ALDH3A1, half-maximal activity (AC50) was put at 0.891 µM, the Efficacy is on record as -53.81 and the CC-v2 is recorded as -1.2.
With `O=C(NCc1c(Cl)cccc1Br)c1csc(N2CCN(c3cccc(C(F)(F)F)c3)CC2)n1` [NCGC01407972-01], on OE19 (3A1), the Cell_Efficacy was determined as 0.00 and the Cell_CC-v2 is 4. Further, on Human ALDH3A1, the AC50 was determined as 0.0501 µM, the Efficacy is on record as -90.79 and the CC-v2 was -1.1.
Take `O=C(Nc1ccc(CNC(=O)c2csc(N3CCN(c4cccc(C(F)(F)F)c4)CC3)n2)cc1)c1ccc(F)cc1` [NCGC01407975-01]: at OE19 (3A1), the activity was half-maximal at 0.1 µM (AC50), the Cell_Efficacy is given as -85.75 and the Cell_CC-v2 is listed as -1.1. Also, at Human ALDH3A1, the activity was half-maximal at 0.355 µM (AC50), the Efficacy was -39.06 and the CC-v2 is recorded as -1.2.
As to `O=C(NCc1cccc(C(=O)N2CCCCC2)c1)c1csc(N2CCN(c3cccc(C(F)(F)F)c3)CC2)n1` [NCGC01407977-01], at OE19 (3A1), half-maximal activity (AC50) was put at 50.1 µM, the Cell_Efficacy is recorded as -33.22 and the Cell_CC-v2 worked out at 5. At Human ALDH3A1, the Efficacy is listed as -16.69 and the CC-v2 is 4.
Regarding `O=C(NCc1cccc(Oc2ccccc2)c1)c1csc(N2CCN(c3cccc(C(F)(F)F)c3)CC2)n1` [NCGC01407978-01], on OE19 (3A1), the concentration at half-maximal activity (AC50) was 1.53 µM, the Cell_Efficacy is reported as -119.85 and the Cell_CC-v2 is listed as -2.1. At Human ALDH3A1, half-maximal activity (AC50) was put at 0.0178 µM, the Efficacy is -100.27 and the CC-v2 is reported as -1.1.
As for `N#CSc1ccc(NC(=O)c2csc(N3CCN(c4cccc(C(F)(F)F)c4)CC3)n2)c(F)c1` [NCGC01407980-01], on OE19 (3A1), the AC50 amounted to 0.0447 µM, the Cell_Efficacy is listed as -75.54 and the Cell_CC-v2 is -1.2. Also, at Human ALDH3A1, the AC50 stood at 15.8 µM, the Efficacy is given as -102.93 and the CC-v2 is given as -1.1.
Turning to `O=C(NCc1cccc(Cl)c1)c1csc(N2CCN(c3cccc(C(F)(F)F)c3)CC2)n1` [NCGC01407982-01], at OE19 (3A1), half-maximal activity (AC50) was put at 0.811 µM, the Cell_Efficacy was -88.39 and the Cell_CC-v2 is given as -1.2. Besides, on Human ALDH3A1, the AC50 stood at 0.0237 µM, the Efficacy is given as -97.73 and the CC-v2 is reported as -1.1.
For `O=C(NCc1ccc(C(F)F)c(F)c1)c1csc(N2CCN(c3cccc(C(F)(F)F)c3)CC2)n1` [NCGC01407984-01], at OE19 (3A1), the activity was half-maximal at 0.242 µM (AC50), the Cell_Efficacy is listed as -105.03 and the Cell_CC-v2 is -2.2. On Human ALDH3A1, the AC50 turned out to be 0.0141 µM, the Efficacy was -99.03 and the CC-v2 is listed as -1.1.
Consider `Cc1ccccc1-c1cccc(CNC(=O)c2csc(N3CCN(c4cccc(C(F)(F)F)c4)CC3)n2)c1` [NCGC01407985-01], for which, at OE19 (3A1), the AC50 was 0.091 µM, the Cell_Efficacy is listed as -83.99 and the Cell_CC-v2 was -1.1. Also, at Human ALDH3A1, the AC50 came out at 0.075 µM, the Efficacy is -78.48 and the CC-v2 is -1.2.
As for `O=C(NCCc1cccc(OCCCc2ccccc2)c1)c1csc(N2CCN(c3cccc(C(F)(F)F)c3)CC2)n1` [NCGC01407986-01], at OE19 (3A1), the activity was half-maximal at 0.501 µM (AC50), the Cell_Efficacy is listed as -92.16 and the Cell_CC-v2 is -1.1. Further, at Human ALDH3A1, half-maximal activity (AC50) was put at 0.562 µM, the Efficacy is reported as -31.39 and the CC-v2 is listed as -1.2.
As for `CC(C)(O)c1ccc(CNC(=O)c2csc(N3CCN(c4cccc(C(F)(F)F)c4)CC3)n2)cc1` [NCGC01408044-01], on OE19 (3A1), the AC50 was 0.0112 µM, the Cell_Efficacy is -68.37 and the Cell_CC-v2 worked out at 5. On Human ALDH3A1, the AC50 stood at 0.891 µM, the Efficacy was -74.78 and the CC-v2 is listed as -1.2.
In the case of `Cc1ccc(C)n1-c1ccc(CNC(=O)c2csc(N3CCN(c4cccc(C(F)(F)F)c4)CC3)n2)cc1` [NCGC01408046-01], on OE19 (3A1), the Cell_Efficacy was -23.84 and the Cell_CC-v2 was 4. For the same compound, at Human ALDH3A1, the activity was half-maximal at 15.8 µM (AC50), the Efficacy is listed as -91.30 and the CC-v2 is -1.1.
